US4159328A, “Tetrahydro-1,3,5-thiadiazin-4-one derivative” (Nihon Nohyaku Co., Ltd., priority 1977, dated 1979)
Like-named read-outs stand apart in the source and are kept apart here.

Columns and labels:
Assay type in all cases: in vivo
[1] = tested on: cirrus red mite (Panonychus citri McGregor); assay: Test Example 4: activity to citrus red mite (Rothamstead method); parameters: concentration or dose not given beside the values; conditions: two days after treatment, 25° C.; 2880 min
Procedure: Activity to cirrus red mite (Panonychus citri McGregor).
Testing method: The test was performed by Rothamstead method. A test composition was sprayed by means of a spray gun over grapefruit leaves infested with citrus red mites. After air-drying the grapefruit was left standing in a constant temperature cabinet at 25° C. Two days after the treatment, the number of survived mites was counted to calculate the mortality.

[2] = tested on: larvae of bug. (Togo hemipterus Scott); assay: Test Example 9: insecticidal activity against larvae of bug; conditions: 120 h, 10 ppm, first-instar larvae, 25° C., five days, read-out: Mortality
Procedure: Insecticidal activity against larvae of bug. (Togo hemipterus Scott).
Test method: Into a glass tube (1.6 cm in internal diameter and 9 cm in length), was added 1 ml of a test composition in 10 ppm concentration just to moisten the absorbent cotton. Five rice seeds and five first-instar larvae were introduced into the glass tube and the tube end was covered with a piece of Japanese paper. The glass tube was kept in a constant temperature cabinet at 25° C. Five days after treatment, the dead-and-survival was inspected to calculate the mortality (3-replication test).

[3] = tested on: larvae of brown planthopper (Nilaparvata lugens Stahl); assay: Test Example 1: insecticidal activity against larvae of brown planthopper; conditions: 120 h, third-instar larvae, 25° C., 5 days after treatment
Method in brief: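 Rice seedlings at 1.5-leaf stage were dipped for 30 s in a 400 ppm test composition, air-dried, and infested with third-instar N. lugens larvae. After holding at 25 °C, mortality was scored 5 or 7 days post-treatment from three replicates.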

[4] = tested on: larvae of green rice leafhopper (Nephotettix cincticeps Uhler); assay: Test Example 5: activity against larvae of green rice leafhopper; conditions: 168 h, 400 ppm, second-instar larvae, 25° C., seven days after treatment, read-out: Mortality
Method in brief: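 Rice seedlings at 1.5 leaf age dipped 30 seconds in 400 ppm test composition, air-dried, then infested with five second-instar larvae. Kept at 25° C; mortality scored seven days after treatment, three replicates.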

[5] = tested on: larvae of house mosquito (Culex pipiens pallens Coquillett); assay: Test Example 6: insecticidal activity to larvae of house mosquito; conditions: 120 h
Method in brief: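 Twenty first-instar Culex pipiens pallens larvae placed with feed in test composition diluted in deionized water to 10 ppm. Kept at 25 °C, and mortality counted five days after treatment.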

[6] = tested on: larvae of 28-spotted lady beetle (Epilachna vigintioctopunctana Fabricius); assay: Test Example 8: insecticidal activity against larvae of 28-spotted lady beetle; conditions: 120 h
Method in brief: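 Tomato leaflets dipped 30 s in 100 ppm test composition, air-dried, and placed in Petri dishes with seven second-instar larvae at 25° C. Mortality scored five days after treatment, two replicates.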

[7] = tested on: larvae of white-backed planthopper (Sogatella furcifera Horvath); assay: Test Example 2: insecticidal activity against larvae of white-backed planthopper; conditions: 168 h, 400 ppm, first-instar larvae, 25° C., seven days after treatment, read-out: Mortality
Method in brief: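 Rice seedlings at 1.5-leaf stage were dipped 30 s in 400 ppm test composition, air-dried, and infested with five first-instar larvae. Tubes were held at 25°C, and mortality was scored at 7 days from triplicate tests.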

[8] = tested on: larvae of diamond-back moth (Plutilla xylostella Linn'e); assay: Test Example 10: insecticidal activity against larvae of diamond-back moth; conditions: 400 ppm, first-instar larvae, three days; 4320 min
Text: Insecticidal activity against larvae of diamond-back moth (Plutilla xylostella Linn'e). Testing method: A test composition of 400 ppm concentration was sprayed over the pot-planted chinese cabbage in a greenhouse by means of a spray gun. After air-drying, the chinese cabbage was infested with 10 first-instar larvae of diamond-back moth and was left standing in the greenhouse. Three days after the treatment, the dead-and-survival was inspected to calculate the mortality (3-replication test).

[9] = tested on: two-spotted spider mite (Tetranychus urticae Koch); assay: Test Example 3: activity to two-spotted spider mite; conditions: 120 h, 1,000 ppm, 5 days after treatment
Text: Activity to two-spotted spider mite (Tetranychus urticae Koch).
Testing method: Two-spotted spider mites were set free on the pot-planted soybean in a greenhouse. On the next day, a test composition of 1,000 ppm concentration was sprayed over the soybean by means of a spray gun. Two days or five days after the treatment, dead-and-survival was inspected to calculate the mortality.

[10] = tested on: adult rust-red-flour beetle (Tribolium castaneum Herbst); assay: Test Example 7: insecticidal activity to adult rust-red-flour beetle
Procedure: Insecticidal activity to adult rust-red-flour beetle (Tribolium castaneum Herbst).
Testing method: Into a 9-cm Petri dish covered on the bottom with a piece of filter paper, was introduced 7 ml of a test composition of 400 ppm concentration. Ten adult rust-red flour beetles were released in the Petri dish and left standing in a constant temperature cabinet at 25° C. After 24 hours, the dead-and-survival was inspected to calculate the mortality.

[11] = 400 ppm, adults, 25° C., 24 hours, read-out: Mortality

Structure (SMILES) | Mortality [1] | mortality at 10 ppm [2] | mortality at 400 ppm [3] | mortality at 400 ppm [4] | mortality at 10 ppm [5] | mortality at 100 ppm [6] | mortality at 400 ppm [7] | Mortality [8] | mortality at 1000 ppm [9] | mortality at 400 ppm [10, 11] | mortality at 400 ppm ([10]; 24 h)
CC(C)N=C1SCN(c2ccccc2)C(=O)N1C [Compound 118, 2-Isopropylimino-3-methyl-5-phenyl-tetrahydro-1,3,5-thiadiazin-4-one] | 100% | 100% |  |  |  |  |  |  |  |  | 
CCN1C(=O)N(c2ccccc2)CSC1=NC(C)(C)C [Compound 131, 2-t-Butylimino-3-ethyl-5-phenyl-tetrahydro-1,3,5-thiadiazin-4-one] | 100% | 100% | 100% | 100% | 100% | 100% |  |  |  |  | 
CCCN1C(=O)N(c2ccccc2)CSC1=NC(C)C [Compound 135] | 100% | 100% | 100% |  | 100% | 100% |  |  |  |  | 
C=CCN1C(=O)N(c2ccccc2)CSC1=NCCC [Compound 140] |  | 50% | 100% | 100% | 100% | 50% |  |  |  |  | 
C=CCN1C(=O)N(c2ccccc2)CSC1=NC(C)C [Compound 141] |  | 80% | 100% | 100% | 100% | 100% |  |  |  |  | 
C=CCN1C(=O)N(c2ccccc2)CSC1=NC(C)CC (stereo not shown) [Compound 142] |  | 100% | 100% | 100% | 100% | 100% |  |  |  |  | 
C=CCN1C(=O)N(c2ccccc2)CSC1=NC(C)(C)C [Compound 143] |  | 100% |  | 100% | 80% | 100% |  |  |  |  | 
CC(C)N=C1SCN(c2ccccc2)C(=O)N1C(C)C [Compound 144, 2-Isopropylimino-3-isopropyl-5-phenyltetrahydro-1,3,5-thiadiazin-4-one] |  | 100% |  | 100% | 100% | 100% | 100% |  |  |  | 
CC(C)CN1C(=O)N(c2ccccc2)CSC1=NC(C)(C)C [Compound 150] |  | 50% | 100% | 90% | 100% | 80% |  |  |  |  | 
CCC(C)N=C1SCN(c2ccccc2)C(=O)N1C(C)CC (stereo not shown) [Compound 151] |  | 80% | 100% | 100% | 100% | 100% |  |  |  |  | 
CCC(C)N1C(=O)N(c2ccccc2)CSC1=NC(C)(C)C (stereo not shown) [Compound 152] |  | 100% | 100% | 100% | 100% | 100% | 100% |  |  |  | 
CC(C)N1C(=O)N(c2ccccc2)CSC1=NC(C)(C)CC(C)(C)C [Compound 156] |  | 50% | 100% | 100% | 100% | 90% |  |  |  |  | 
COCCN1C(=O)N(c2ccc(Cl)cc2)CSC1=NC(C)C [Compound 207] |  |  |  |  |  |  |  | 100% |  |  | 
CC(C)(C)N=C1SCN(c2ccc(Cl)cc2)C(=O)N1C1CCCCC1 [Compound 208] |  |  |  |  |  |  |  | 80% |  |  | 
CN=C1SCN(c2cccc(Cl)c2)C(=O)N1C [Compound 213] |  |  | 100% |  | 100% |  |  |  | 100% | 100% | 
CCN1C(=O)N(c2cccc(Cl)c2)CSC1=NC(C)(C)C [Compound 216, 2-t-Butylimino-3-ethyl-5-(m-chlorophenyl)-tetrahydro-1,3,5-thiadiazin-4-one] |  | 100% | 100% |  |  |  |  |  | 70% | 100% | 

Structure (SMILES) | Mortality [1] | mortality at 10 ppm [2] | mortality at 400 ppm [3] | mortality at 400 ppm [4] | mortality at 10 ppm [5] | mortality at 100 ppm [6] | mortality at 400 ppm [7] | Mortality [8] | mortality at 1000 ppm [9] | mortality at 400 ppm [10, 11] | mortality at 400 ppm ([10]; 24 h)
C=CCN1C(=O)N(c2cccc(Cl)c2)CSC1=NC(C)C [Compound 217, 2-Isopropylimino-3-allyl-5-(m-chlorophenyl)-tetrahydro-1,3,5-thiadiazin-4-one] |  | 100% | 100% |  |  |  |  |  | 100% | 100% | 
C=CCN1C(=O)N(c2cccc(Cl)c2)CSC1=NC(C)(C)C [Compound 218] | 100% |  | 100% |  | 100% |  |  |  | 100% | 100% | 
C=CCN1C(=O)N(c2cccc(Cl)c2)CSC1=NCc1ccccc1 [Compound 219] | 100% |  | 100% |  |  |  |  | 80% | 70% |  | 100%
CC(C)N1C(=O)N(c2cccc(Cl)c2)CSC1=NC(C)(C)CC(C)(C)C [Compound 222] |  | 100% | 100% |  |  |  |  |  | 80% | 100% | 
CC(C)CN1C(=O)N(c2cccc(Cl)c2)CSC1=NC(C)(C)C [Compound 223] |  |  | 100% |  | 100% |  |  |  | 70% | 100% | 
CCC(C)N=C1SCN(c2cccc(Cl)c2)C(=O)N1C(C)CC (stereo not shown) [Compound 224] |  |  | 100% | 100% | 100% |  | 100% |  | 100% | 100% | 
CC(C)N1C(=O)N(c2cccc(Cl)c2)CSC1=NC1CCCCC1 [Compound 230] |  |  |  |  |  |  |  | 100% |  |  | 
CCCN1C(=O)N(c2cccc(Cl)c2)CSC1=NC(C)(C)C [Compound 232] |  |  | 70% |  |  |  |  | 70% |  |  | 
CCCCN1C(=O)N(c2cccc(Cl)c2)CSC1=NC(C)(C)C [Compound 236] |  |  | 80% |  |  |  |  | 100% |  |  | 
CCN=C1SCN(c2cccc(C)c2)C(=O)N1CC [Compound 324] |  |  | 100% |  |  |  |  | 100% |  |  | 
Cc1cccc(N2CSC(=NC(C)(C)C)N(C(C)C)C2=O)c1 [Compound 326] |  |  | 100% | 100% | 100% | 100% | 100% | 100% |  |  | 
CCC(C)N=C1SCN(c2cccc(C)c2)C(=O)N1C(C)CC (stereo not shown) [Compound 327] |  |  | 100% | 100% | 90% | 100% | 100% | 100% | 100% |  | 
Cc1cccc(N2CSC(=NC(C)C)N(Cc3ccccc3)C2=O)c1 [Compound 329] |  |  |  |  |  |  |  | 100% |  |  | 
CCc1ccc(N2CSC(=NC)N(C)C2=O)cc1 [Compound 331, 2-methylimino-3-methyl-5-(p-ethylphenyl)-tetrahydro-1,3,5-thiadiazin-4-one] |  |  |  |  |  |  |  | 100% |  |  | 
CCc1ccc(N2CSC(=NC(C)(C)C)N(C(C)C)C2=O)cc1 [Compound 333, 2-t-butylimino-3-isopropyl-5-(p-ethylphenyl)-tetrahydro-1,3,5-thiadiazin-4-one] |  |  | 100% | 100% | 100% |  | 100% | 100% |  |  | 
CC(C)N=C1SCN(c2ccc([N+](=O)[O-])cc2[N+](=O)[O-])C(=O)N1C(C)C [Compound 366] |  |  |  |  |  |  |  | 100% |  |  | 
